Target: T1, Macrophage migration inhibitory factor (Homo sapiens, UniProt P14174)
T1 sequence (P14174 whole entry): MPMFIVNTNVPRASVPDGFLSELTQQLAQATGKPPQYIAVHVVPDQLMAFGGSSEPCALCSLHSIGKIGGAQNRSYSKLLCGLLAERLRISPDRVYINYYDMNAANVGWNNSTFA
Experiment: Inhibition of C-terminal His-tagged recombinant human MIF expressed in Escherichia coli BL21 (DE3) using 4-HPP as substrate preincubated for 10 mins followed by substrate addition by UV absorption spectrum analysis

- IC50: 0.071 µM
SMILES: O=C(O)c1ccc(-c2ccc(-c3cc4ccc(O)cc4oc3=O)cc2)cc1
